Assay results published in PMC3332521 (Scientific Reports, 2012).
Blank lines part the entries; values can stand above or below the molecule they belong to.

Assays:
[1] = biological target: T1, Nfo (Pseudomonas putida, UniProt F8G0M2); test: coupled formate dehydrogenase assay, NADH at […] nm; format: biochemical; details: 50 mM Tris-HCl pH 8.0, 20°C, NAD
T1 sequence (F8G0M2 1-255): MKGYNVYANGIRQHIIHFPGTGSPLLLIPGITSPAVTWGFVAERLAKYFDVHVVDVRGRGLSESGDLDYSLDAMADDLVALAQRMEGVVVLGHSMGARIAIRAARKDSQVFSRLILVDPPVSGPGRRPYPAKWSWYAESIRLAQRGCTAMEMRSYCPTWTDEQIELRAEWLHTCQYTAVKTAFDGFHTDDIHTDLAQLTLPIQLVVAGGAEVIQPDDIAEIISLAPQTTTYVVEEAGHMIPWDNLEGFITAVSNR

[2] = biological target: T2, Ami (Pseudomonas putida, UniProt F8G0M0); test: coupled glutamate dehydrogenase assay, NADPH at […] nm; format: biochemical; details: 50 mM Tris-HCl, 1 mM EDTA, 20°C, alpha-ketoglutarate
T2 sequence (F8G0M0 1-208): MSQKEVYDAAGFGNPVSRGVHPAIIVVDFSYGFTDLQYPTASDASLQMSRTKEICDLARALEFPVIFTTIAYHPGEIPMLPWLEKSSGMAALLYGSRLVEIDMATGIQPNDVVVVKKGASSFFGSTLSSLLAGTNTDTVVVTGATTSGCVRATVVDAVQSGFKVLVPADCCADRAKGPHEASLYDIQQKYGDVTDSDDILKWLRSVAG

[3] = biological target: T3, Iso (Pseudomonas putida, UniProt F8G0M3); test: spectrophotometric, maleate consumption at […] nm; format: biochemical; details: read-out: apparent Km; 50 mM Tris-HCl pH 8.4, 30°C, 1-thioglycerol
T3 sequence (F8G0M3 1-252): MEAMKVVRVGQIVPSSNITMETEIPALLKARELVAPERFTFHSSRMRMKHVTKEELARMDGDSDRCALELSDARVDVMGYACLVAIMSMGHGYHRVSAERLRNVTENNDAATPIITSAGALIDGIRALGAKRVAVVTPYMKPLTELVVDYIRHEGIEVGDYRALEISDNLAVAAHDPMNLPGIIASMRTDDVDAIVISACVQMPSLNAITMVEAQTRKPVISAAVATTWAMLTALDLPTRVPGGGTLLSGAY

[4] = substrate: Oc1ccc(O)nc1; test: purified protein; format: biochemical, Pseudomonas putida; details: 0.025 mM Fe2+, 18.2 mM Tris-HCl pH 8.0, 20°C

Molecule: O=CNC(=O)/C=C\C(=O)O [NFM]
- coupled formate dehydrogenase assay, NADH at 340 nm [1]: Nfo activity was measured through its production of formate by a coupled reaction

Molecule: NC(=O)/C=C\C(=O)O [maleamic acid]
- coupled glutamate dehydrogenase assay, NADPH at 340 nm [2]: Purified Ami (Fig. 3A) transformed maleamic acid to maleic acid

- Km [3]: 689 µM
Molecule: O=C(O)/C=C\C(=O)O [maleate]

B1: Hpo (Pseudomonas putida S16) (protein)
chain: MDHVSFTEICLRQLKMSGVHEGERLIVLTQGHERLAYADAFMAAGQRLGAEMYHMRLPSPLPSNGWAVGVTGLADLPGAVEALKNCDMLIDCVFLLFSAEQFEIQAAGTRILTAVEPPELLARMLPFPELREKVSIAAELVENAKDMRITSPHGTDITYKLNTYPTIAEYACTDTPGRWDHWPSGFVFTGGDDDGVDGTIVVAPGDVLLPQNLMVREPITYTIEKGWIVDIRGGLEAQIVNSYMDSFNDPRGKGMSHVGWGMNPHAKWHNFVPGQFTGGMGMELRSFYGNVMFSTGPNNELGGSNDTACHLDIPMRNCSLFLDDTPVVIDGDIVVKEIQLVQR
- Km [4]: 0.168 µM
